Laboratory results reported in patent US8022617B2, “Organic compound, charge-transporting material, composition for charge-transporting material and organic electroluminescent device” (Mitsubishi Chemical Corporation, priority 2005, dated 2011).

Experiment: Solubility in toluene
Assay type: physicochemical
Details: solvent toluene
Excerpt: As described below, an aromatic hydrocarbon is preferred as a solvent contained in a composition for charge-transporting material. Toluene is a typical aromatic hydrocarbon and is used as an index of the solubility of the organic compound (charge-transporting material) in the present invention.

| Compound | dissolved in toluene in an amount of |
| --- | --- |
| O=c1n(-c2cccc(-n3c4ccccc4c4ccccc43)c2)c2ccccc2n1-c1cccc(-n2c3ccccc3c3ccccc32)c1 [Target Compound 4] | ≥ 3 percent by weight |
| O=c1n(-c2ccc(N(c3ccccc3)c3ccc(-c4ccccc4)cc3)cc2)c2ccccc2n1-c1ccc(N(c2ccccc2)c2ccc(-c3ccccc3)cc2)cc1 [Target Compound 5] | ≥ 5.0 percent by weight |
| O=c1n(-c2cccc(-c3ccccc3)c2)c2ccccc2n1-c1cccc(-c2ccccc2)c1 [Target Compound 6] | ≥ 5.0 percent by weight |
| O=c1n(-c2cccc(-n3c4ccccc4c4ccncc43)c2)c2ccccc2n1-c1cccc(-n2c3ccccc3c3ccncc32)c1 [Target Compound 12] | ≥ 3 percent by weight |
| O=c1n(-c2cccc(-n3c4ccccc4c4ccccc43)c2)c2cccnc2n1-c1cccc(-n2c3ccccc3c3ccccc32)c1 [Target Compound 16] | ≥ 3 percent by weight |
